These results are taken from PMC8279484 (Journal of Medicinal Chemistry, 2021).

Broadly, the pIC50 is −log10 of the IC50, conventionally taken in molar units. As a reminder, the pEC50 is −log10 of the EC50, conventionally taken in molar units.

The test system of one test is NF-κB. Kind of test: LPS-induced NF-κB-driven luciferase gene reporter assay in THP-1 Lucia monocytes. In kind it is cell-based, human. The following applies: for Rel. Slope: HS relative to LXA4 (1); for pIC50: Homo sapiens, THP-1; for Potency Rel. Pot.: IC50 relative to LXA4 (1); for Efficacy Rel. Eff.: Imax relative to LXA4 (1); for reduction of LPS-induced NF-κB-driven luciferase activity: approximate extent; for reduction of LPS-induced NF-κB-driven luciferase activity / Imax (%): 1 pM–1 μM; for Imax (%): maximal % inhibition of LPS (50 ng/mL)-stimulated NF-κB luciferase activity, 30 min pretreatment; for (Single component) Rel. Score: Rel. Pot. / (Single component) Rel. Score: Rel. Sl.: score relative to LXA4 (1); for Slope HS (Hill–Slope): slope of concentration–response curve; for (Aggregate) Rel. PD Score: sum of efficacy, potency, slope scores relative to LXA4 (1). As for the experimental part:
Mycoplasma-free THP-1-Lucia NF-κB cells were grown in an RPMI 1640 (Gibco) medium containing 2 mM L-glutamine, 1.50 g/L sodium bicarbonate, 4.50 g/L glucose, 10 mM N-(2-hydroxyethyl)piperazine-N′-ethanesulfonic acid (HEPES), and 1 mM sodium pyruvate. Then, 10% heat-inactivated fetal bovine serum (FBS) (30 min at 56 °C), 100 μg/mL Normocin, and Pen-Strep (50 U/mL to 50 μg/mL) were also added to the growth media. As THP-1-Lucia cells were resistant to Zeocin, the latter was used as a selective antibiotic (a high dose, i.e., 100 μg/mL, was alternated every 2 weeks with a low dose, i.e., 10 μg/mL).
LXA41 and all of the tested sLXms were dissolved in ethanol and further diluted in a culture medium (final ethanol concentration 0.1%; equivalent concentrations were used as the vehicle control). Prior to in vitro experiments, THP-1-Lucia NF-κB cells were harvested and plated at 1 × 10^5 cells/well on 96-well plates and left to settle in the incubator at 37 °C, 95% humidity, and 5% CO2, in 0.1% FBS-containing media, pretreated for 30 min with increasing doses of LXA41, sLXms (from 10^–12 to 10^–6 M), or appropriate controls, followed by stimulation with 50 ng/mL LPS for 24 h.
NFκB activity was monitored in the human THP-1 monocytic leukemia cell line containing a stably integrated NF-κB-inducible Lucia reporter construct (as previously reported).[21] When stimulated with LPS, the transcription factor NF-κB is activated, upregulating the synthesis of proinflammatory mediators, thus bringing about an inflammatory response. In these cells, NF-κB activation is linked to a […] luciferase gene and can be measured using luminescence.
Heat-killed listeria monocytogenes (HKLM) (10^8/mL) was used as a positive control.[28] The levels of NF-κB-induced Luciferase were then measured in a culture supernatant using QUANTI-Luc as the detection reagent, and measurements were taken on a bioluminescence reader.
After 24 h, the levels of NF-κB-induced Lucia were assayed in a cell culture supernatant using QUANTI-Luc, as a detection reagent, on a bioluminescence reader (Synergy HT, BioTek Instruments, Inc. Vermont). Aliquots of the supernatant were retained for subsequent cytokine and LDH assays. Cellular proteins were extracted with a radioimmunoprecipitation assay (RIPA) buffer (Thermo Fisher, Ireland), supplemented with protease inhibitors (Sigma-Aldrich, Ireland). Lysates were clarified by centrifugation (3200g, 10’, 4 °C) to remove cell debris, and the cell protein level was quantified by performing a bicinchoninic acid (BCA) assay (as per the manufacturer’s instructions) reading the protein absorbance at 570 nm, using a spectrophotometer (SPECTRAMAX M2, Molecular Devices (U.K.) Limited). A “relative luminescence unit” (RLU) was obtained using the average value of the lum/abs ratio of two replicates.
The “coding” of the heat-map indicates the arbitrary criteria to assign points to each single PD component (efficacy = Imax or Emax; potency = IC50 or EC50; slope = HS) to generate a final (aggregate) relative PD score. […] If a single PD component was equal to the reference level (x = 1), then the single-component relative score was arbitrarily set to 0 (gray). If a single PD component was smaller than the reference level (x < 1), then the single-component relative score was arbitrarily set to −1 (light red) or −2 (dark red). If the curve of a single PD component was best fitting to a flat line (x = 0), then the single-component relative score was arbitrarily set to −4 (purple) (Table S1).
(A reporter such as luciferase makes a cellular process visible.)

A further test deals with THP-1-MF0 macrophage. Kind of test: Phagocytosis of fluorescent E. coli bioparticles by THP-1-MF0 macrophages. In kind it is cell-based, human. The note with it: for Efficacy Emax (%): 30 min pretreatment 1 fM–1 μM, figure expresses fold change; for Efficacy Emax (%) / pEC50: 2 h bioparticles; for pEC50: Homo sapiens, Macrophage, 30 min pretreatment, read-out: Potency EC50. As for the experimental part: Mycoplasma-free THP-1 monocytes were grown in an RPMI 1640 (Gibco) medium containing 2 mM L-glutamine, 2.00 g/L sodium bicarbonate, and 2.00 g/L glucose. Then, 10% (v/v) heat-inactivated FBS (30 min at 56 °C) and Pen-Strep (100 U/mL to 100 μg/mL) were supplemented to the growth media.
Cell adherence was allowed for 1 h and 30 min at 37 °C/5% CO2. Cells were then treated for 30 min with controls and phagocytosis effectors for testing (vehicle, LXs, Rvs, or sLXms). Subsequently, media containing controls/effectors were vacuum-aspirated and replaced with a solution containing fluorescently prelabeled E. coli-derived bioparticles and cells were incubated in the dark for 2 h at 37 °C/5% CO2 to allow particle ingestion by monocytes/macrophages. After that, media containing bioparticles were vacuum-aspirated and replaced with a solution containing trypan blue and cells were incubated for 1 min at room temperature to allow quenching of unbound particles to ensure specificity of the fluorescent signal, deriving only from ingested particles (not shown). After aspiration of Trypan, the fluorescence reading was immediately performed at the following conditions: end point; reading from the bottom of the plate; Ex.480/Em.520 nm.

Where [1] appears, read: LPS 50 ng/mL, 24 h, read-out: Potency IC50.

The structures appear in SMILES notation. pEC50, pIC50: −log10 of the molar value. Where “and” joins values, the source holds several entries; their conditions need not be identical. Equal entries are not always repeated. Where two headings read alike, the source gives them in different places.

In the case of `CCCCCCC[C@H](O)c1nc2ccccc2nc1/C=C/[C@@H](O)[C@@H](O)CCCC(=O)OC` [(S)-8, Methyl (5S,6R,E)-5,6-Dihydroxy-8-(3-((S)-1-hydroxyoctyl)quinoxalin-2-yl)oct-7-enoate], in the test with NF-κB, the “Rel. Slope” value is on record as 0, the “Potency Rel. Pot.” value turned out to be 6, the “Efficacy Rel. Eff.” value was 0.96 and the “reduction of LPS-induced NF-κB-driven luciferase activity” value is on record as 10–20%. Moreover, in the test with NF-κB, the “(Single component) Rel. Score: Rel. Pot.” value was 2 (x ≥ 5), the “(Single component) Rel. Score: Rel. Sl.” value is -4 (x = 0), the “Slope HS (Hill–Slope)” value came to 0 and the “(Aggregate) Rel. PD Score” value is given as -2. Also, the pIC50 with NF-κB (setting [1]) is 11.00. The “IC50 (range in words)” value on NF-κB (LPS 50 ng/mL, 24 h) is ““pM” range”. Also, in the test with NF-κB (24 h), the “Imax (%)” value stood at 23 ± 8%.
As for `CCCCC[C@@H](O)c1c(/C=C/[C@@H](O)[C@@H](O)CCCC(=O)OC)nc(C)n1C` [Compound 5, imidazolo-LXA4], in the test on NF-κB, the “Rel. Slope” value was -9, the “Potency Rel. Pot.” value turned out to be 300, the “Efficacy Rel. Eff.” value came to 1.83 and the “(Single component) Rel. Score: Rel. Pot.” value is 2 (x ≥ 5). Moreover, in the test on NF-κB, the “(Single component) Rel. Score: Rel. Sl.” value is reported as 1 (1 < x < 10), the “Slope HS (Hill–Slope)” value is recorded as 90 and the “(Aggregate) Rel. PD Score” value turned out to be 5. In the test with NF-κB (24 h), the “Imax (%)” value is 44 ± 9%. In the test on THP-1-MF0 macrophage, the “Efficacy Emax (%)” value was determined as 4.2 ± 0.7% and the pEC50 was 11.00. For the same compound, in the test on THP-1-MF0 macrophage (relative to LXA4 (1)), the “Potency Rel. Pot.” value came out at 500 and the “Single comp. score Rel. Pot.” value is on record as 2 (x ≥ 5).
With `CCCCC[C@H](O)/C=C/C=C\C=C\C=C\[C@@H](O)[C@@H](O)CCCC(=O)O` [Compound 1, LXA4], in the test on NF-κB, the “Rel. Slope” value was 1, the “Potency Rel. Pot.” value was found to be 1 and the “Efficacy Rel. Eff.” value came to 1. The “Imax (%)” value in the test with NF-κB (24 h) was 24 ± 1%. The “Efficacy Emax (%)” value in the test on THP-1-MF0 macrophage was 4.2 ± 0.5% and 4.2 ± 2%. Moreover, in the test with THP-1-MF0 macrophage (back to baseline at 1 μM), the “concentration of peak phagocytosis” value is listed as 100 nM. This compound also showed an increase of phagocytosis with THP-1-MF0 macrophage (concentration-dependent, at peak) of 4 fold. For the same compound, in the test with THP-1-MF0 macrophage (relative to LXA4 (1)), the “Efficacy Rel. Eff.” value worked out at 0 and the “Potency Rel. Pot.” value worked out at 1.
For `CCCCC[C@@H](O)c1nc2ccccc2nc1/C=C/[C@H]1OC(C)(C)O[C@H]1CCCC(=O)OC` [(R)-17, Methyl 4-((4S,5R)-5-((E)-2-(3-((R)-1-Hydroxyhexyl)quinoxalin-2-yl)vinyl)-2,2-dimethyl-1,3-dioxolan-4-yl)butanoate], in the test on NF-κB, the “Rel. Slope” value came out at 0, the “Potency Rel. Pot.” value was 60, the “Efficacy Rel. Eff.” value is recorded as 0.75 and the “reduction of LPS-induced NF-κB-driven luciferase activity” value was “least effective”. In the test with NF-κB, the “(Single component) Rel. Score: Rel. Pot.” value was 2 (x ≥ 5), the “(Single component) Rel. Score: Rel. Sl.” value is on record as -4 (x = 0), the “Slope HS (Hill–Slope)” value was 0 and the “(Aggregate) Rel. PD Score” value is listed as -3. Also, in the test on NF-κB (setting [1]), the pIC50 was 12.00. The “Imax (%)” value with NF-κB (24 h) amounted to 18 ± 7%.
With `CCCCC[C@@H](O)c1nc2ccccc2nc1/C=C/[C@@H](O)[C@@H](O)CCCC(=O)OC` [(R)-6, Methyl (5S,6R,E)-5,6-Dihydroxy-8-(3-((R)-1-hydroxyhexyl)quinoxalin-2-yl)oct-7-enoate], in the test with NF-κB, the “Rel. Slope” value stood at 57, the “Potency Rel. Pot.” value worked out at 2.4, the “Efficacy Rel. Eff.” value is reported as 1.58 and the “(Single component) Rel. Score: Rel. Pot.” value was 1 (1 < x < 5). Besides, in the test with NF-κB, the “(Single component) Rel. Score: Rel. Sl.” value is 2 (x ≥ 10). Besides, the pIC50 in the test with NF-κB (LPS 50 ng/mL, 24 h, read-out: IC50) is 10.60. The “Imax (%)” value in the test on NF-κB (24 h) is listed as 38 ± 9%. The pEC50 in the test with THP-1-MF0 macrophage was 10.30. Further, in the test with THP-1-MF0 macrophage (relative to LXA4 (1)), the “Potency Rel. Pot.” value was 100 and the “Single comp. score Rel. Pot.” value is 2 (x ≥ 5).
